From article PMC4249970 (PLoS ONE, 2014)
Each block holds one compound with its values, some of them ahead of it.

Columns and labels:
[1] = system: TRPV1; experiment: Ca2+ fluorographic assay, TRPV1-SH-SY5Y cells activated by 10 µM capsaicin; type: cell-based; settings: 50 µM compound
Protocol: (§1) For fluorescence assays, cells expressing TRP channels (TRPV1-SH-SY5Y, TRPM8-HEK and TRPA1-IMR90) were seeded in 96-well plates (Corning Incorporated, Corning, NY) at a cell density of 40,000 cells 2 days before treatment. The day of treatment the medium was replaced with 100 µL of the dye loading solution Fluo-4 NW supplemented with probenecid 2.5 mM. Then the compounds dissolved in DMSO were added at the desired concentrations and the plate(s) were incubated at 37°C in a humidified atmosphere of 5% CO2 for 60 minutes.
(§2) The fluorescence was measured using instrument settings appropriate for excitation at 485 nm and emission at 535 nm. (POLARstar Omega BMG LAB tech). A baseline recording of 7 cycles was recorded prior to stimulation with the agonist (10 µM capsaicin for TRPV1, 100 µM menthol for TRPM8, and 100 µM AITC for TRPA1). The corresponding antagonist (10 µM Ruthenium Red for TRPV1 and TRPA1, 100 µM AMTB for TRPM8) was added for the blockade. The changes in fluorescence intensity were recorded during 15 cycles more. DMSO, at the higher concentration used in the experiment, was added to the control wells.
(§3) The degree of blockage (%) of TRP channel activity was calculated by: [drawing 1]

[2] = system: acetic acid-induced writhing in CD-1 male mice; experiment: acetic acid writhing test (model of visceral pain); type: in vivo; settings: for number of stretches: writhing test 30 minutes after antagonist
Protocol: After acetic acid administration, mice were placed in individual transparent containers and, after 5 min, the number of writhes was counted during a 10 min period.
The animals, CD-1 male mice (25–27 g), were redistributed in groups, two of which were used as the control group. […] All drugs were intraperitoneally (i.p.) administered, 30 minutes before the algogen agent. Control mice were treated with 10 ml/kg of saline solution. Each group included 10–12 animals; those animals showing behavioral alterations were previously discarded. Each animal was used only once. An observer who was unaware of the different treatments carried out the collection of data.
The experimental test used was the acetic acid writhing test. The effect of the i.p. administration of 10 ml/kg of acetic acid (2%) was measured by quantifying the number of writhing responses in the three groups of animals over a 10 minutes period. Responses were measured starting 5 minutes after the algogen agent was administered. The animals used were supplied by the animal house of Universidad Rey Juan Carlos. Room temperature was kept at 22±1°C. A 12 hours light - dark cycle was started at 8:00 a.m., at constant humidity. All animals were given free access to food and water.

[3] = target: T1, TRPA1 (Homo sapiens, UniProt O75762); experiment: Ca2+ fluorographic assay, TRPA1-IMR90 cells activated with 100 µM AITC; type: cell-based; parameters: expressed in transfected cells; host or cells: IMR90
T1 sequence (O75762 whole entry): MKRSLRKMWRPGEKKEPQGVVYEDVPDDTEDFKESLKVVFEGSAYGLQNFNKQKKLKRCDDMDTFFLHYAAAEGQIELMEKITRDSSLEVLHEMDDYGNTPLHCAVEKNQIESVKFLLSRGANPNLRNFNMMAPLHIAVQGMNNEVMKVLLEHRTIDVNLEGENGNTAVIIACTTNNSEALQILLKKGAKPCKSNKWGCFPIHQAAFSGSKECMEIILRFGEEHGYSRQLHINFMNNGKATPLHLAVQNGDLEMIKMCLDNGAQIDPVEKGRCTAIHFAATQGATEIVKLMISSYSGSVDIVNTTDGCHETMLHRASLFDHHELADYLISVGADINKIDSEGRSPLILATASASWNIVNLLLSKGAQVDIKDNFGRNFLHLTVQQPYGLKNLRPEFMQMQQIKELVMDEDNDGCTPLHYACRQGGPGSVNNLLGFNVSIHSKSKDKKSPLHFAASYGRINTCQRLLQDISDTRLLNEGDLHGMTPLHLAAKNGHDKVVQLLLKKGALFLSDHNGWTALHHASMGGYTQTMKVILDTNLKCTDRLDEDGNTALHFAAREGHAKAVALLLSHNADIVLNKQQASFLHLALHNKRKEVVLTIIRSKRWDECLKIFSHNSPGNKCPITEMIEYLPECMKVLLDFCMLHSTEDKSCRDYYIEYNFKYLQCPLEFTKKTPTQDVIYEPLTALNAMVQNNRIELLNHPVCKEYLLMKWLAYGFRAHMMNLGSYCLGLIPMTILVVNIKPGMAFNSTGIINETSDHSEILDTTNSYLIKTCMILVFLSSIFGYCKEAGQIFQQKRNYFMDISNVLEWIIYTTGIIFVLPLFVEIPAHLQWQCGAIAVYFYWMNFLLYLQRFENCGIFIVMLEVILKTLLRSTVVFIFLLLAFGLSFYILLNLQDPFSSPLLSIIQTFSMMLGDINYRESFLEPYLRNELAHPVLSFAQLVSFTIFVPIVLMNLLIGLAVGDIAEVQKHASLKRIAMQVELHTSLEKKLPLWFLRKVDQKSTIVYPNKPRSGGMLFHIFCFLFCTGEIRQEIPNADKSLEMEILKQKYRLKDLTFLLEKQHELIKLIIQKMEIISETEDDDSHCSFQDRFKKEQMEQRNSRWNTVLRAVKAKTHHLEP
Protocol: as §1, §2, §3

[4] = target: T2, human recombinant COX-2 (Homo sapiens, UniProt P35354); experiment: COX inhibitor screening assay (Cayman kit 700100); type: biochemical; settings: at 10 mM
T2 construct: purchased Cayman Chemical Company kit 700100
T2 sequence (P35354 18-604): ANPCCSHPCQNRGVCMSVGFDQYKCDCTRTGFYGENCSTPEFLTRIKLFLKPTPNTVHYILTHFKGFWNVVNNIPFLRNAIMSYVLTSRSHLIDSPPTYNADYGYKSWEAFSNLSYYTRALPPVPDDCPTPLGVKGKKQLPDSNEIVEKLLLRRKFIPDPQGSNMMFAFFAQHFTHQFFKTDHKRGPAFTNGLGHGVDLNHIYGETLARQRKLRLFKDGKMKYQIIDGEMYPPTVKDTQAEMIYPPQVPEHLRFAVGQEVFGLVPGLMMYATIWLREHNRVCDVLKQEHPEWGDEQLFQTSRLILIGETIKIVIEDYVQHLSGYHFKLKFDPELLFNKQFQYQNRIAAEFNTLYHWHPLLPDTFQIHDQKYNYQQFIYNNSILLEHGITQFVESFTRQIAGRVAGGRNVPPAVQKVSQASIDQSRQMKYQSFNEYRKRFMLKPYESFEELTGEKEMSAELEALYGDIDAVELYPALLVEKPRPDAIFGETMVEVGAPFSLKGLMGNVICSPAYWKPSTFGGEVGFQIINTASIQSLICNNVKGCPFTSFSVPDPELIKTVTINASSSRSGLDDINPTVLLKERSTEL
Description: A COX inhibitor screening assay (kit 700100) was used to determine the activity of isolated ovine COX-1 and human recombinant COX-2 as described by the manufacturer (Cayman Chemical Company, USA).

[5] = target: T3, TRPM8 (Homo sapiens, UniProt Q7Z2W7); experiment: Ca2+ fluorographic assay, TRPM8-HEK cells activated with 100 µM menthol; type: cell-based; settings: 50 µM compound
T3 construct: expressed in transfected cells; host or cells: HEK
T3 sequence (Q7Z2W7 whole entry, species assumed): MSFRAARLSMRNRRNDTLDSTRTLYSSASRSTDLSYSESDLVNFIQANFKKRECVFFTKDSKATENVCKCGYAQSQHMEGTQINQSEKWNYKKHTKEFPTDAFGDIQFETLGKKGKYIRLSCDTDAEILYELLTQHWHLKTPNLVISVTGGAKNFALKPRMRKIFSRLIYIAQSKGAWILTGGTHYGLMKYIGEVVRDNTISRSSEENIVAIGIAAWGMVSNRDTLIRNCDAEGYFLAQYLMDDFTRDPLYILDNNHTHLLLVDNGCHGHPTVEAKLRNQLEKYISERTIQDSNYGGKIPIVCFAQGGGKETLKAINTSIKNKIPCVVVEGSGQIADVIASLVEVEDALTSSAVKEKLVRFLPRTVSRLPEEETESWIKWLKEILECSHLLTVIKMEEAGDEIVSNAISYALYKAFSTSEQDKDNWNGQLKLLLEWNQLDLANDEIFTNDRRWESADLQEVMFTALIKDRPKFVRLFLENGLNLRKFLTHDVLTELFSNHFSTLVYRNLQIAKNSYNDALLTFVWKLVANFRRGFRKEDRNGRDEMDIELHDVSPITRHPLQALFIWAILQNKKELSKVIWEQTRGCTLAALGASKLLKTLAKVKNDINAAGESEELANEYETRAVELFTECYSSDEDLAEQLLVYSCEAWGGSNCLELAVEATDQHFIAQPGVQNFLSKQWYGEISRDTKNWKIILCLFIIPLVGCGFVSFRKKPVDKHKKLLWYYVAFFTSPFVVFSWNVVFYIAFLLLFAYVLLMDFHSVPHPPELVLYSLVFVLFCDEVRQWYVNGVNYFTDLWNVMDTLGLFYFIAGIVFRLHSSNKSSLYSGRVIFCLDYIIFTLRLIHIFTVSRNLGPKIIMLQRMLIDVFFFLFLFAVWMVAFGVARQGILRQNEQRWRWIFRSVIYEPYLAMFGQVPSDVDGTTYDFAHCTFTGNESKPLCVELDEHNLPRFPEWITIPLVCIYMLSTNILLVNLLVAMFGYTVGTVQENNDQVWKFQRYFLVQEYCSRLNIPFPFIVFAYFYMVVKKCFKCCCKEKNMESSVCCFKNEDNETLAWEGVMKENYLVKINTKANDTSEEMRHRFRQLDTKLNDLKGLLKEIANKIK
Protocol: as §1, §2, §3

[6] = target: T1, TRPA1; experiment: whole-cell voltage clamp of AITC-evoked currents in hTRPA1-expressing IMR-90 cells; type: cell-based; parameters: expressed in transfected cells; host or cells: IMR-90; settings: 100 µM AITC
Protocol: A) Representative whole-cell voltage clamp recording from hTRPA1-expressing IMR-90. Currents were measured every second during a holding potential of -60 mV. Pre-application of 6a/b (20 s) was followed by co-application with 100 µM AITC for 60s in presence of 2.0 mM extracellular Ca^2+. Current traces of different colours denote the different concentrations of compound 6a/b tested. B) Dose response of compound 6a/b blockade activity. Solid line depicts the fitting to a Michaelis isotherm. […] Data are given as mean ± sem, with n≥4 cells) per data point. (TIF) Click here for additional data file.
A) Representative whole-cell voltage clamp recording from hTRPA1-expressing IMR-90 cells in the absence of extracellular Ca^2+. Ionic currents, at positive and negative potentials were measured every 2s during a 350 ms voltage ramp from −60 mV to +60 mV and evoked with 100 µM AITC followed by the addition of 100 µM compound 6a/b for 20s. AITC was present with drug application and after application to evaluated current reversibility B) Current-voltage relationships of TRPA1 in the absence and presence of 100 µM compound 6a/b in Ca^2+ free medium. […] Data were obtained from n≥4 cells. (TIF) Click here for additional data file.

[7] = i.p. 30 minutes before acetic acid

- blockade of TRPA1 channel activity ([3]; 50 µM compound, 100 µM AITC): up to 85%
- IC50 ([3]; dose-response curve, 100 µM AITC, mean ± SEM, n ≥5, read-out: TRPA1 inhibition IC50): 2.6 µM
- nH (hill coefficient) of TRPA1 inhibition ([3]; fit to a binding isotherm): 0.21
- effect on COX-2 enzymatic activity [4]: did not affect the enzymatic activity
- effect on TRPM8 channel activity [5]: No significative effect
- IC50 ([6]; 2.0 mM extracellular Ca2+, holding potential -60 mV, estimated, read-out: IC50 of blockade of TRPA1-mediated currents): 10.6 ± 0.7 µM
- IC50 ([6]; absence of extracellular Ca2+, inferred, saturation of blockade not reached, read-out: IC50 of blockade of TRPA1 currents): ≥ 80 µM
Structure (SMILES): CC(=O)NC1C2CC3CC1CC(O)(C3)C2 (stereo not shown) [compound 6a/b, N-5-hydroxyadamantan-2-yl acetamide]
- effect on TRPV1 channel activity [1]: No significative effect
- analgesic efficacy at saturation, compared with paracetamol and morphine ([2]; at saturation (750 mg/kg i.p.)): significantly higher than paracetamol and similar to morphine
- number of stretches ([2]; compound given 30 minutes before CB1 antagonist AM251 (3 mg/kg i.p.)): 13±1
- number of stretches ([2]; compound given 30 minutes before CB2 antagonist AM630 (1 mg/kg i.p.)): 15.5±1.7
- dose at which the analgesic effect saturated [2, 7]: 750 mg/kg

Structure (SMILES): CC(=O)NC12CC3CC(CC(O)(C3)C1)C2 [compound 5, N-3-hydroxyadamantan-1-yl acetamide]
- dose at which the analgesic effect saturated [2, 7]: 200 mg/kg
- antinociceptive activity ([2]; i.p. 30 minutes before acetic acid, similar to paracetamol): ~40%

- melting point: 184 °C
Structure (SMILES): CC(=O)NC1C2CC3CC1CC(O)(C3)C2 (stereo not shown) [compound 6a, N-5-hydroxyadamantan-2-yl acetamide]

Structure (SMILES): CC(=O)Nc1ccc(O)cc1 [paracetamol, 4-hydroxyacetanilide, reference compound]
- reduction of the nociceptic behavior (writhes) ([2]; 100 mg/kg i.p. 30 minutes before acetic acid): 40%
